Assay results published in article PMC5970223, “Multiplexed profiling of GPCR activities by combining split TEV assays and EXT-based barcoded readouts” (Scientific Reports, 2018).
Structures can show the parent of a compound that is named as a salt. Where two headings read alike, the source gives them in different places.

Experiments:
[1] = target: T1, serotonin receptor HTR2A (Homo sapiens, UniProt P28223); assay: multiplexed GPCRprofiler assay in U2OS cells; type: cell-based; details: for agonistic effect on HTR2A (drug alone): drug only for 6 h, subtle = less than 2-fold change, three consecutive increases
T1 sequence (P28223 81-471 limits assumed): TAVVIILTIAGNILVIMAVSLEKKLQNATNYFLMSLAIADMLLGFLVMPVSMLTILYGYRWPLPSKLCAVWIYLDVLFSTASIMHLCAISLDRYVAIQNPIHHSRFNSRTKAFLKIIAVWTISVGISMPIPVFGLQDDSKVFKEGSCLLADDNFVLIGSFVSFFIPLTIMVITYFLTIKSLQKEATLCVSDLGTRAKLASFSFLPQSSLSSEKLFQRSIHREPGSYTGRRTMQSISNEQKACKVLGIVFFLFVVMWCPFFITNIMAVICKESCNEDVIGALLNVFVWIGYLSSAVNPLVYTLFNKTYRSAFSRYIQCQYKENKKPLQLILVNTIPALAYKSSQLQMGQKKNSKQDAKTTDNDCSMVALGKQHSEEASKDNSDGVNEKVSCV
Procedure: (§1) Two hours after transfection, all cell populations were pooled, mixed, and evenly divided into fractions for plating onto assay dishes (Fig. 2a). The cells were cultured and stimulated under identical conditions for agonist or antagonist assays as initially described for GPCR split TEV assays (Supplementary Fig. S1a,b).
(§2) After cell lysis, RNA from each sample was isolated and converted into cDNA by reverse transcription. […] This permits the mixing of all samples and sequencing of all pooled samples using a single sequencing run (Fig. 2b). The sample barcodes enable tracing experimental conditions, whereas the read counts per EXTs serve as quantitative measurements for the corresponding GPCRs. […] From the normalized data the fold changes of receptor activities were finally calculated.
(§3) In addition to the stimulation with the single compounds, a compound-mixture (mix) of all agonists was tested. The first set of experiments were carried out in the human osteosarcoma cell line U2OS. We normalized the raw sequencing data to total read numbers of sample codes, followed by averaging reads of internal and external calibrator EXTs as described above (Supplementary Fig. S4).
(§4) Next, we applied the multiplexed GPCRprofiler to measure the effects of GPCR targeting drugs on receptor activity. […] In addition, binding affinities to α-adrenergic receptors and the histamine receptor HRH1 were described for paliperidone using biochemical assays[38]–[40]. […] To address any changes in GPCR activities caused by the selected drugs, receptors were stimulated for 6 h applying two different parameters. First, to monitor agonistic effects, GPCRs were treated with the drugs only (Supplementary Fig. S1a). Second, to measure antagonistic effects, GPCRs were treated both with the drugs and the corresponding agonist (Supplementary Fig. S1b). This experimental design therefore allows to identify potential antagonistic effects of agonists and vice versa. For a profiling experiment, drugs were applied at increasing concentrations. […] Alternatively, a drug-induced inhibition of agonist-mediated GPCR activation specifies the drug as antagonist.
Cells were resuspended in culture medium without antibiotics at a density of 1.5 × 10^6 cells/ml (U2OS) or 3 × 10^6 cells/ml (PC12). […] Transfection-mixes were added to cell suspensions and incubated for 2 h at 37 °C without shaking. Suspensions were centrifuged for 5 min at 900 rpm and resuspended in culture medium to remove transfection reagents.

[2] = system: T2, histamine receptor HRH1; assay: multiplexed GPCRprofiler assay in U2OS cells; type: cell-based, human; details: for drug-induced effect, GPCRprofiler: Supplementary Table S4, HRH1; for antagonistic effect on HRH1: U2OS cells, drug 1 h before agonist-mix (1 µM each)
T2 construct: ORFs of GPCRs were PCR amplified; expressed in transfected cells; host or cells: U2OS
Procedure: as §1, §2, §4
(§5) Cells were resuspended in culture medium without antibiotics at a density of 1.5 × 10^6 cells/ml (U2OS) or 3 × 10^6 cells/ml (PC12). […] Transfection-mixes were added to cell suspensions and incubated for 2 h at 37 °C without shaking. Suspensions were centrifuged for 5 min at 900 rpm and resuspended in culture medium to remove transfection reagents. All transfection samples were combined within one pool and plated on multiple wells of 6-well plates and incubated for 24 h at 37 °C. Afterwards, cells were starved for 17–18 h and then treated with compounds for 6 h in duplicates. After compound treatment cells were washed with PBS and 500 µl RLT lysis buffer was applied for cell lysis. Lysates were processed for sequencing as described below.
(§6) RNA was additional in solution treated with Turbo DNase (Ambion) for 30 min at 37 °C and repurified over an RNeasy column. First-strand cDNA synthesis was performed with 1 µg total RNA using superscript III reverse transcriptase (Invitrogen) and 120 pmol of a random nanomer primer. […] On order to differentiate different samples 13mer barcodes were introduced between 5′ Ion adapter and target sequence. All processed samples of an experiment were combined within one pool and purified using PCR clean-up kit (Macherey-Nagel).
(§7) Raw sequencing data analyses were done by using BLAST algorithm and in-house developed R scripts.

[3] = system: T3, serotonin receptor HTR1A; assay: multiplexed GPCRprofiler assay in U2OS cells; type: cell-based, human; details: multiplexed GPCR assay
T3 construct: ORFs of GPCRs were PCR amplified; HA-Flag signal peptide (N); expressed in transfected cells; host or cells: U2OS
Procedure: as §1, §2, §4, §5, §6, §7

[4] = system: T4, α-adrenergic receptor ADRA2C; assay: multiplexed GPCRprofiler assay in U2OS cells; type: cell-based, human; details: for drug-induced effect, GPCRprofiler: Supplementary Table S4, ADRA2C; for antagonistic effect on ADRA2C: U2OS cells, drug 1 h before agonist-mix (1 µM each)
T4 construct: ORFs of GPCRs were PCR amplified; expressed in transfected cells; host or cells: U2OS
Procedure: as §1, §2, §4, §5, §6, §7

[5] = system: HTR2A; details: cited from earlier work; for drug effect, PubChem: ref PubChem, Supplementary refs 1, 4–6, 8,9
[6] = system: ADRA2B; set-up: method as in PubChem, Supplementary refs 1, 6, 17; details: ref PubChem, Supplementary refs 1, 6, 17; cited from earlier work
[7] = system: ADRA2C; set-up: method as in PubChem, Supplementary refs 1, 17; details: ref PubChem, Supplementary refs 1, 17; cited from earlier work
[8] = system: HRH1; details: cited from earlier work; for drug effect, IUPHAR: ref IUPHAR, Supplementary refs 2,3, 7, 10
[9] = system: HTR2A; details: GF62 cells; cited from earlier work
[10] = system: dopamine and the adrenergic receptors; details: U2OS cells, agonist 100 pM to 100 µM
Procedure: as §1, §2, §3, §5
(§8) RNA was additional in solution treated with Turbo DNase (Ambion) for 30 min at 37 °C and repurified over an RNeasy column. […]

[11] = system: serotonin receptor HTR5A; details: U2OS cells (not in PC12 cells)
Procedure: as §1, §2, §3, §5, §8

[12] = target: T1, serotonin receptor HTR2A; details: PC12 cells
Procedure: as §1, §2
Cells were resuspended in culture medium without antibiotics at a density of 1.5 × 10^6 cells/ml (U2OS) or 3 × 10^6 cells/ml (PC12). […] Transfection-mixes were added to cell suspensions and incubated for 2 h at 37 °C without shaking. Suspensions were centrifuged for 5 min at 900 rpm and resuspended in culture medium to remove transfection reagents. All transfection samples were combined within one pool and plated on multiple wells of 6-well plates and incubated for 24 h at 37 °C. Afterwards, cells were starved for 17–18 h and then treated with compounds for 6 h in duplicates. […]

[13] = target: HTR2A serotonin receptor (Homo sapiens, UniProt P28223); assay: single GPCR split TEV assay, luciferase readout (β-arrestin2 recruitment); type: cell-based; details: standard single luciferase GPCR split TEV assay, validation (Fig. 4f); read-out: IC50 of HTR2A receptor inhibition
Chain of HTR2A serotonin receptor (P28223 81-471 limits assumed): as above
Excerpt: (§9) GPCR split TEV assays allow monitoring ligand-dependent GPCR activities using the stimulation-dependent interaction of β-arrestin2 and a candidate GPCR. […] To do this, the NTEV fragment and the artificial transcription factor GAL4-VP16 (GV) were fused to the C-terminal end of a candidate GPCR, separated by a TEV cleavage site (tevS) (Fig. 1a,b). To improve the stability of the interaction between a given GPCR and the arrestin, a short sequence from the C-terminal end of the human arginine vasopressin receptor 2 (AVPR2) (abbreviated V2R) was introduced between a candidate GPCR and NTEV[17],[27]. V2R contains multiple phosphorylation sites for GRKs. These sites provide, when phosphorylated, enhanced binding of β-arrestin.
For these assays, cells were transiently transfected with GPCR split TEV components and reporters, which were allowed to express for 20 h. […] For antagonistic assays, compounds were added 1 h before agonist to ensure proper incubation (Supplementary Fig. S1b). For clarity, varying experimental conditions, such as plate formats, for applied assay formats are summarized in Supplementary Table S3.
For luciferase assays cells were plated on 96-well white plates at 4 × 10^4 cells/well (PC12) one day before the experiment. The assays were performed with 6 wells as replicates per condition. […]

[14] = target: T5, dopamine receptor DRD2 (Homo sapiens, UniProt P14416); assay: standard single luciferase GPCR split TEV assay; type: cell-based; details: validation (Fig. 4e), read-out: IC50 of DRD2 receptor inhibition
T5 sequence (P14416 1-414 isoform P14416-2): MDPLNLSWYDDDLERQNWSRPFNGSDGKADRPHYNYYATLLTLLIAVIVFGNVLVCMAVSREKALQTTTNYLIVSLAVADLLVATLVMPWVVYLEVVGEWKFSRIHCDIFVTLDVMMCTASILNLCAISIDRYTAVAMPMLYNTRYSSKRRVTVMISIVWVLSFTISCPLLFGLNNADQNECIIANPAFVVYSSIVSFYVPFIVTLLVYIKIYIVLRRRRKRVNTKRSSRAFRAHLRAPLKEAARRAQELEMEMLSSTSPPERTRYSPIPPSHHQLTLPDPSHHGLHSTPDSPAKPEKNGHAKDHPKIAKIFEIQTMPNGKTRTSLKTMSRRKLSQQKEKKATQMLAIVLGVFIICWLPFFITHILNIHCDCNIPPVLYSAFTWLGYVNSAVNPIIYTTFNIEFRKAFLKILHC
Excerpt: as §9
For luciferase assays cells were plated on 96-well white plates at 4 × 10^4 cells/well (PC12) one day before the experiment. The assays were performed with 6 wells as replicates per condition. […] Plasmids and lipofectamine 2000 transfection reagent (Invitrogen) were diluted in opti-MEM (Gibco) and incubated for 20 min at room temperature. Medium was removed from cells, the transfection-mix was added and the plates incubated for 2 h at 37 °C, followed by the adding of double-volume of culture medium to dilute transfection reagents. […]

[15] = target: T5, dopamine receptor DRD2; assay: multiplexed GPCRprofiler assay in U2OS cells; type: cell-based
[16] = system: T6, α-adrenergic receptor ADRA2B; assay: multiplexed GPCRprofiler assay in U2OS cells; type: cell-based, human
T6 construct: ORFs of GPCRs were PCR amplified; expressed in transfected cells; host or cells: U2OS (multiplexed assays)
Procedure: as §1, §2, §4, §5, §6, §7

[17] = system: DRD2; details: ref PubChem, Supplementary refs 1, 4,5, 12–14; cited from earlier work
[18] = U2OS cells, drug 1 h before agonist-mix (1 µM each)

For `O=C1CCc2ccc(OCCCCN3CCN(c4cccc(Cl)c4Cl)CC3)cc2N1` [Aripiprazole], the “agonistic effect on HTR2A (drug alone)” value ([1]; U2OS cells) was “concentration-dependent agonistic effect”, the “agonistic effect on HTR2A (drug alone)” value ([1]; U2OS cells, listed as aripiprazole) was “subtle agonistic effects” and the “drug-induced effect, GPCRprofiler” value [2] was “Antagonist”. The “antagonistic effect on HRH1” value [2] was “inhibited”, the “partial agonism on HTR1A” value [3] was “not detected” and the “drug-induced effect, GPCRprofiler” value [4] was “Antagonist”. The “antagonistic effect on ADRA2C” value [4] was “inhibited”, the “drug effect, PubChem” value [5] was “Antagonist” and the “drug effect, PubChem” value [6] was “Antagonist”. For the same molecule, the “drug effect, PubChem” value [7] was “Antagonist”, the “drug effect, IUPHAR” value [8] was “Antagonist” and the “drug effect, PubChem” value ([8]; ref PubChem, Supplementary refs 1, 4–6, 17) was “Antagonist”. For the same molecule, the “effect on HTR2A reported in the literature” value [9] was “weak partial agonistic effect”.
With `NCCc1ccc(O)c(O)c1` [Dopamine, Dopamine hydrochloride] the “activation of HTR2A by non-cognate agonist” value ([1]; U2OS cells) was “activation”, the “signals of both receptor subfamilies (dopamine and adrenergic) upon stimulation” value [10] was “elevated signals” and the “activation of HTR5A by non-cognate agonist” value [11] was “activated by dopamine in U2OS cells only”. The “activation of HTR2A by non-cognate agonist” value [12] was “activation”.
For `Cc1nc2n(c(=O)c1CCN1CCC(c3noc4cc(F)ccc34)CC1)CCCC2O` (stereo not shown) [Paliperidone], the IC50 [13] was 3.65 nM, the IC50 [14] was 188 nM and the “drug-induced effect, GPCRprofiler” value ([15]; Supplementary Table S4, DRD2) was “Antagonist”. For the same molecule, the “antagonistic effect on DRD2” value [15, 18] was “dose-dependent inhibition of receptor activity”, the “drug-induced effect, GPCRprofiler” value ([1]; Supplementary Table S4, HTR2A) was “Antagonist” and the “antagonistic effect on HTR2A” value [1, 18] was “dose-dependent inhibition of receptor activity”. For the same molecule, the “drug-induced effect, GPCRprofiler” value [2] was “Antagonist”, the “antagonistic effect on HRH1” value [2] was “dose-dependent inhibition of receptor activity” and the “drug-induced effect, GPCRprofiler” value ([16]; Supplementary Table S4, ADRA2B) was “Antagonist”. For the same molecule, the “antagonistic effect on ADRA2B” value [16, 18] was “dose-dependent inhibition of receptor activity”, the “drug-induced effect, GPCRprofiler” value [4] was “Antagonist” and the “antagonistic effect on ADRA2C” value [4] was “dose-dependent inhibition of receptor activity”. The “drug effect, IUPHAR” value ([5]; ref IUPHAR, Supplementary refs 2,3, 7, 10,11) was “Antagonist”, the “drug effect, PubChem” value [5] was “Antagonist” and the “drug effect, PubChem” value [17] was “Antagonist”. The “drug effect, PubChem” value [6] was “Antagonist” and the “drug effect, IUPHAR” value [8] was “Antagonist”.
